# Laboratory results published in publication PMC5087659, “The role of ADP-ribosylation in regulating DNA interstrand crosslink repair” (Journal of Cell Science, 2016).
# Target: T1, O. sativa APL (Q10MW4) macrodomain (Oryza sativa, UniProt B8ALM5)
# T1 construct: gene OsI_11122
# Experiment: X-ray crystal structure of the complex (co-crystallisation)
# Settings: 2 mM ADPr added to protein; crystals in 0.1 M SPG buffer pH 4, 25% PEG 1500, 20 °C; macrodomain binding pocket
# T1 sequence (B8ALM5 entry or part of it, one chain of several): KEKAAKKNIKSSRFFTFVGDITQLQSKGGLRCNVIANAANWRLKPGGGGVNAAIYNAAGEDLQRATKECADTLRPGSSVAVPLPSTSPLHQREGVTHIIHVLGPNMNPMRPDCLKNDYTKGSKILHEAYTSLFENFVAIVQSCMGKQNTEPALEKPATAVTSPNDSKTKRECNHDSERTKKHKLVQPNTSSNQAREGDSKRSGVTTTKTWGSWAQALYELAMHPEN
structure (smiles),measurement,value
Nc1ncnc2c1ncn2[C@@H]1O[C@H](COP(=O)(O)OP(=O)(O)OC[C@H]2OC(O)[C@H](O)[C@@H]2O)[C@@H](O)[C@H]1O (stereo partly shown) [ADP-ribose],X-ray crystal structure of the complex (co-crystallisation),We were able to obtain the O. sativa macrodomain in a complex with ADP-ribose
